Data as given in article PMC7291858, “An Enhanced Variant Designed From DLP4 Cationic Peptide Against Staphylococcus aureus CVCC 546” (Frontiers in Microbiology, 2020).
≈ marks a conversion by molar mass, not a printed value. Peptide text beside a SMILES is read from it.

What was measured:
[1] = system: Gram-negative bacteria; experiment: MIC, summary over Gram-negative strains; assay type: cell-based; details: E. coli and Salmonella strains of Table 2
Method: (§1) The minimal inhibitory concentration (MIC) was evaluated by a microtiter plate assay ([Wiegand et al., 2008]). Serial 2-fold dilutions of test peptides were placed into a 96-well plate containing identical bacterial inoculum and incubated at 37°C for 16∼20 h. Vancomycin was used as antibiotic control. The MIC value was defined as the lowest peptide concentration where no visible growth occurred. All tests were made in triplicate.

[2] = system: IL-10; experiment: Mouse thigh infection model, serum cytokine ELISA; assay type: in vivo, mouse (female CD-1); details: 10 mg/kg i.p., serum 24 h post-infection
Method: (§2) Mouse experiments were carried out at Gene Engineering Laboratory, Feed Research Institute of Chinese Academy of Agricultural Sciences (CAAS) and complied with institutional animal care and use policies and procedures (AEC-CAAS-20090609). All animal studies were performed with female CD-1 mice, 6∼7 weeks old.
(§3) S. aureus CVCC 546 in the exponential phase were resuspended in MHB and adjusted to 1 × 10^8 CFU/mL, a 0.1-mL inoculum was injected into the right thighs of mice. At 2 h post-infection, mice (n = 6) were administered intraperitoneally (i.p.) with peptides at 2.5, 5, or 10 mg/kg. Mice raised without any treatment, or treated with PBS, 10 mg/kg DLP4, or vancomycin were used as the blank and negative and positive controls, respectively. At 24 h post-infection, peripheral blood was collected and serum was separated for cytokine levels analysis by using enzyme-linked immunosorbent assay (ELISA) kit (R&D systems, United States). Mice were euthanized, the right thighs were aseptically removed and processed for colonies counting ([Ling et al., 2015]).

[3] = system: TNF-α; experiment: Mouse thigh infection model, serum cytokine ELISA; assay type: in vivo, mouse (female CD-1); details: 10 mg/kg i.p., serum 24 h post-infection
Method: as §2, §3

[4] = system: IL-6; experiment: Mouse thigh infection model, serum cytokine ELISA; assay type: in vivo, mouse (female CD-1); details: 10 mg/kg i.p., serum 24 h post-infection
Method: as §2, §3

[5] = system: Salmonella pullorum CVCC 533; experiment: MIC, microtiter plate assay; assay type: cell-based; details: 37°C, 16∼20 h, triplicate
Method: as §1

[6] = system: Streptococcus pneumoniae CVCC 2350; experiment: MIC, microtiter plate assay; assay type: cell-based; details: 37°C, 16∼20 h, triplicate
Method: as §1

[7] = system: S. suis CVCC 3928; experiment: MIC, microtiter plate assay; assay type: cell-based, Streptococcus suis; details: 37°C, 16∼20 h, triplicate
Method: as §1

[8] = system: S. aureus CVCC 546 gDNA; experiment: Gel retardation assay of gDNA binding; set-up: species or system Staphylococcus aureus; details: 10 min incubation, 1% agarose gel, ratios 0-5 (w/w)
Method: A gel retardation assay ([Zhao et al., 2019]) was utilized to analyze the binding of peptides to genomic DNA (gDNA) extracted from S. aureus CVCC 546 with TIANamp Bacteria DNA Kit (TIANGEN Biotech Co., Ltd., Beijing). The peptides were incubated for 10 min with gDNA at different ratios of 0–5.0 (w/w) and then loaded on 1% agarose gel for electrophoresis analysis.

## CC[C@H](C)[C@@H]1NC(=O)[C@@H]2CSSC[C@@H](C(=O)N[C@@H](CCCNC(=N)N)C(=O)N[C@@H](CCCCN)C(=O)O)NC(=O)[C@H](CC(N)=O)NC(=O)[C@@H]3CSSC[C@H](NC(=O)[C@H](C)NC(=O)[C@H](C)NC(=O)[C@H](Cc4c[nH]cn4)NC(=O)CNC(=O)[C@H](C(C)C)NC(=O)[C@H](CCCCN)NC(=O)[C@H](Cc4ccccc4)NC(=O)[C@@H]4CCCN4C(=O)[C@H](CO)NC(=O)[C@H](CC(C)C)NC(=O)[C@H](CC(C)C)NC(=O)[C@H](CC(=O)O)NC(=O)[C@@H](NC(=O)[C@@H](NC(=O)[C@H](C)N)[C@@H](C)O)CSSC[C@H](NC(=O)[C@H](Cc4c[nH]c5ccccc45)NC(=O)CNC(=O)CNC(=O)[C@H](CCCNC(=N)N)NC(=O)[C@H](CCCCN)NC(=O)CNC(=O)[C@H](CCCNC(=N)N)NC(=O)[C@H](C)NC1=O)C(=O)N[C@@H](CC(=O)O)C(=O)NCC(=O)N[C@@H](CCCNC(=N)N)C(=O)N[C@@H](C)C(=O)N[C@@H](C(C)C)C(=O)N3)C(=O)N[C@@H](C)C(=O)N[C@@H](C)C(=O)N[C@@H](Cc1c[nH]cn1)C(=O)N2 [ID13] (HELM PEPTIDE1{A.T.C.D.L.L.S.P.F.K.V.G.H.A.A.C.A.A.H.C.I.A.R.G.K.R.G.G.W.C.D.G.R.A.V.C.N.C.R.K}$PEPTIDE1,PEPTIDE1,3:R3-30:R3|PEPTIDE1,PEPTIDE1,16:R3-36:R3|PEPTIDE1,PEPTIDE1,20:R3-38:R3$$$V2.0; N-terminus and C-terminus assumed)
[1]
  activity against Gram-negative bacteria: no activity
[2]
  downregulation of serum level of IL-10: 37.66 pg/mL
[3]
  downregulation of serum level of TNF-α: 1123.30 pg/mL
[4]
  downregulation of serum level of IL-6: 750.02 pg/mL
[5]
  MIC: >30.50 µM
[6]
  MIC: 0.95 µM (≈ 3.99 µg/mL)
[7]
  MIC: 0.95 µM (≈ 3.99 µg/mL)
[8]
  peptide/gDNA mass ratio at which gDNA was completely blocked: 5
  peptide/gDNA mass ratio at which migration of gDNA began to be retarded: 1
